# Measurements from patent US7553837B2, “Phenylazole compounds production process and antioxidants” (Nippon Soda Co., Ltd., priority 2003, dated 2009).
# Experiments:
# [1] = test system: lipid peroxidation activity in a rat brain homogenate; experiment: In vitro lipid peroxidation inhibition (rat brain homogenate, thiobarbituric acid process); type: biochemical; conditions: read-out: In vitro lipid peroxidation inhibition 50% inhibitory concentration (IC50 μM), 500 μM cysteine, 5 μM sulfuric acid monobasic iron, 100 mM KCl, 37° C. for 30 minutes
# Experimental: An in vitro lipid peroxidation inhibition of the compounds of the present invention was evaluated by measuring a lipid peroxidation activity in a rat brain homogenate according to a process of Malvy, c., et al., Biochemical and Biophysical Research Communications, 1980, Vol. 95, p. 734-737. That is, a rat brain was extracted and a 5-fold amount of an aqueous phosphoric acid buffered saline solution (pH 7.4) (hereinafter abbreviated to PBS) was added to the brain under ice cooling, followed by homogenization using a Teflon homogenizer and further centrifugation at 10,000 g for 20 minutes to prepare a brain homogenate as a supernatant. To the brain homogenate thus prepared, 500 μM cysteine, 5 μM sulfuric acid monobasic iron and 100 mM KCl were added, followed by incubation at 37° C. for 30 minutes. Malondialdehyde produced by the […] of lipid peroxidation was measured by a thiobarbituric acid process.
# [2] = test system: abnormal behavior and fatality due to ferrous chloride; experiment: In vivo antioxidative activity: ferrous chloride administration into spinal subarachnoid cavity of mice; set-up: species or system Slc:ICR male mice; conditions: score after 60 minutes
# Experimental: An in vivo antioxidative activity of the compounds of the present invention was evaluated from an abnormal behavior due to administration of ferrous chloride into spinal subarachnoid cavity of mice as well as an inhibitory effect of a fatality rate according to the process described in J. Med. Chem., 1997, Vol. 40, p. 559-573. Using Slc:ICR male mice (one group: 3 to 7 mice, 5 weeks old) (available from Nippon SLC Co., Ltd.), 5 μl of a 50 mM ferrous chloride physiological saline solution was administered to the spinal canal through the space between the fifth lumbar vertebrae and the sixth lumbar vertebrae. 20 to 60 minutes after administration of ferrous chloride, symptoms were observed and a score after 60 minutes was determined from symptoms shown in Table 32. […] As is apparent from the results, the compounds of the present invention have an in vivo antioxidation action.
# [3] = test system: 66 kDa protein in the retina; experiment: 66 kDa protein increase inhibitory action in retina of rats irradiated with UV-A; type: in vivo; conditions: Wistar male rats, 10 mg/kg, p.o., UV-A irradiation, retina 48 hours after irradiation, N = 3
# Experimental: An action for inhibition of an increase in 66 kDa protein in the retina of rats irradiated with ultraviolet light of the compounds of the present invention was evaluated. To Wistar male rats (7 to 9 weeks old), a solution or suspension prepared by dissolving or suspending each of test compounds in a 0.1N hydrochloric acid solution or a 1% poly oxy ethylene hydrogenated castor oil (NIKKOL HCO-60) solution was orally administered. After 30 minutes, right eye was irradiated with UV-A (12 mW/cm^2) using a UV spot light source for 30 minutes. Left eye was not irradiated (control). During irradiation with UV-A and 2 hours before and after irradiation, rats were bred under an atmosphere where room light is screened. 48 hours after irradiation, the retina was separated. In the same manner as in Example 21, a 5% homogenate solution was prepared. Regarding a change in retinal protein, SDS-polyacrylamide electrophoresis was carried out according to the process of Lammli (Nature, […], 680-685, 1970). […] Then, the specimen was decolored with ethanol:acetic acid:water (25:8:65) and the 66 kDa protein after migration was analyzed by a densitograph. The amount of the protein in the specimen was determined by a Lowry process.
# 5-lipoxygenase (5-LO) = target: T1, 5-lipoxygenase (5-LO) (Homo sapiens, UniProt P09917); experiment: 5-lipoxygenase (5-LO) inhibitory activity, leukotriene B4 production in human peripheral blood mononuclear cells; type: cell-based; conditions: human peripheral blood mononuclear cells, A23187, leukotriene B4 production
# T1 construct: human peripheral blood mononuclear cells and each of test compounds dissolved in DMSO (final concentration: 1%) were preincubated; endogenous in cells; host or cells: human peripheral blood mononuclear cells
# T1 sequence (P09917 1-674): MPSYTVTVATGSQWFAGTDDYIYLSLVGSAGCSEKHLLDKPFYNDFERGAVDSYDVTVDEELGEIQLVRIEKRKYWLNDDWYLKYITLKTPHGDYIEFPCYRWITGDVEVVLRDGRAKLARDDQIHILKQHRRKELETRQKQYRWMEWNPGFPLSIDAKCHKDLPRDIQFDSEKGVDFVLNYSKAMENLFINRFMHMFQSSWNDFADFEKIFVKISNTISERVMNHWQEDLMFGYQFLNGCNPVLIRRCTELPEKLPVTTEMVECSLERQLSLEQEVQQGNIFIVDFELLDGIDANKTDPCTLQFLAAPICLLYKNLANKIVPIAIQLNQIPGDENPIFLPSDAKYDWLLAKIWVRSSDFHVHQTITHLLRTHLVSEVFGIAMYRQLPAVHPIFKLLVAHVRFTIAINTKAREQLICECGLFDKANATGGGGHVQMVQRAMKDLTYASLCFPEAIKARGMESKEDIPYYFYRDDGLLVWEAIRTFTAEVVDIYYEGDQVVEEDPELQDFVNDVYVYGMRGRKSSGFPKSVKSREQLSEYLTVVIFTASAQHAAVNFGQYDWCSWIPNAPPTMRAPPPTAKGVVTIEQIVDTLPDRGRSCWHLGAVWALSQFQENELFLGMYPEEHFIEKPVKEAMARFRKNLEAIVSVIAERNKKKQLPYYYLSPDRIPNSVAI
# Experimental: A 5-LO inhibitory activity was measured by a partially modified process of a process of Carter et al. (Carter G. W, et al, J. Pharmacol. Exp. Ther.: 256, 929-37, 1991). That is, human peripheral blood mononuclear cells and each of test compounds dissolved in DMSO (final concentration: 1%) were preincubated (37° C., 15 minutes) in a Hanks' balanced salt solution and 30 μM A23187 was further added, followed by incubation (37° C., 30 minutes). The amount of leukotriene B4 produced as a result of incubation was determined by enzyme immunoassay and a 50% production inhibitory concentration (μM) against 5-LO of each test compound was calculated.
smiles,measurement,setting,value
Cc1c(C)c2c(c(C)c1N)CC(C)(CN1CCN(c3cccc(-n4ccnc4)c3)CC1)O2 (centres unmarked) [Compound B-1-18],IC50,[1],0.25 µM
same,"In vivo antioxidation action 50% inhibitory concentration (ID50), Intraperitoneal administration",[2]; intraperitoneal administration 30 minutes before ferrous chloride into spinal canal,4.7 mg/kg
same,"In vivo antioxidation action 50% inhibitory concentration (ID50), Oral administration",[2]; oral administration 30 minutes before ferrous chloride into spinal canal,7.4 mg/kg
same,66 kDa protein ratio in retina of rats irradiated with ultraviolet light (right eye: irradiated/left eye: non-irradiated),[3],1.50
same,IC50,5-lipoxygenase (5-LO),2.55 µM
